Laboratory results reported in PubChem BioAssay (NCI).
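Protocol summary: plate cells (96-well), add compound at 5 concentrations, incubate 48 h, interpolate endpoints linearly. Abbreviation: GI50, concentration required for 50% inhibition of growth. TGI is the concentration that stops growth completely.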

Experiments:
Assay in all cases: NCI tumour cell line growth inhibition, 48 h
[1] = test system: UO-31 renal
[2] = test system: OVCAR-8 ovarian
[3] = test system: SK-MEL-2 melanoma
[4] = test system: T-47D breast
[5] = test system: MDA-MB-435
[6] = test system: NCI-H23 lung
[7] = test system: HCT-15 colon
[8] = test system: SN12C renal
[9] = test system: SW-620 colon
[10] = test system: MDA-MB-231 breast
[11] = test system: BT-549 breast
[12] = test system: IGROV1 ovarian
[13] = test system: M14 melanoma
[14] = test system: SF-295 CNS
[15] = test system: NCI-H226 lung
[16] = test system: UACC-257 melanoma
[17] = test system: SR leukemia
[18] = test system: DU-145 prostate
[19] = test system: MOLT-4 leukemia
[20] = test system: 786-0 renal
[21] = test system: SNB-19 CNS
[22] = test system: K-562 leukemia
[23] = test system: A549 NSCLC
[24] = test system: A498 renal
[25] = test system: SK-MEL-28 melanoma
[26] = test system: KM12 colon
[27] = test system: PC-3 prostate
[28] = test system: EKVX NSCLC
[29] = test system: U251 CNS
[30] = test system: UACC-62 melanoma
[31] = test system: SF-539 CNS
[32] = test system: OVCAR-5 ovarian
[33] = test system: SK-OV-3 ovarian
[34] = test system: COLO 205 colon
[35] = test system: OVCAR-4 ovarian
[36] = test system: LOX IMVI melanoma
[37] = test system: HS 578T breast
[38] = test system: SNB-75 CNS
[39] = test system: NCI-H522 lung
[40] = test system: HL-60(TB) leukemia
[41] = test system: NCI-H460 lung
[42] = test system: SK-MEL-5 melanoma
[43] = test system: MALME-3M melanoma
[44] = test system: HOP-62 NSCLC
[45] = test system: HT29 colon
[46] = test system: RPMI-8226 leukemia
[47] = test system: HOP-92 NSCLC
[48] = test system: HCT-116 colon
[49] = test system: ACHN renal
[50] = test system: RXF 393 renal
[51] = test system: OVCAR-3 ovarian
[52] = test system: NCI/ADR-RES ovarian
[53] = test system: TK-10 renal
[54] = test system: HCC-2998 colon
[55] = test system: SF-268 CNS
[56] = test system: CAKI-1 renal
[57] = test system: MCF7 breast
[58] = test system: CCRF-CEM leukemia

Q: How did the GI50 [1] turn out when `CS(=O)(=O)Nc1cc(-c2ccc3ncnc(Nc4ccc5c(cnn5Cc5cccc(F)c5)c4)c3c2)cnc1Cl` was run?
A: 1.04 µM

Q: And the TGI [1]?
A: 3.96 µM

Q: What about the GI50 [2] of the same compound?
A: 1.57 µM

Q: And the TGI [2]?
A: > 100 µM

Q: And the GI50 [3]?
A: 0.275 µM

Q: And the TGI [3]?
A: 1.21 µM

Q: And the GI50 [4]?
A: 0.101 µM

Q: What about the TGI [4] of the same compound?
A: 0.922 µM

Q: And the GI50 [5]?
A: 0.628 µM

Q: What about the TGI [5] of the same compound?
A: 2.3 µM

Q: And the GI50 [6]?
A: 0.648 µM

Q: And the TGI [6]?
A: 6.28 µM

Q: What about the GI50 [7] of the same compound?
A: 1.11 µM

Q: And the TGI [7]?
A: 8.01 µM

Q: And the GI50 [8]?
A: 0.421 µM

Q: And the TGI [8]?
A: 18.9 µM

Q: And the GI50 [9]?
A: 0.676 µM

Q: And the TGI [9]?
A: 6.61 µM

Q: What about the GI50 [10] of the same compound?
A: 0.586 µM

Q: And the TGI [10]?
A: 13.2 µM

Q: And the GI50 [11]?
A: 0.227 µM

Q: What about the TGI [11] of the same compound?
A: 1.05 µM

Q: And the GI50 [12]?
A: 0.17 µM

Q: And the TGI [12]?
A: 0.733 µM

Q: What about the GI50 [13] of the same compound?
A: 0.745 µM

Q: What about the TGI [13] of the same compound?
A: 2.5 µM

Q: What about the GI50 [14] of the same compound?
A: 0.811 µM

Q: And the TGI [14]?
A: 3 µM

Q: What about the GI50 [15] of the same compound?
A: 1.11 µM

Q: What about the TGI [15] of the same compound?
A: 4.84 µM

Q: And the GI50 [16]?
A: 0.812 µM

Q: What about the TGI [16] of the same compound?
A: 4.47 µM

Q: And the GI50 [17]?
A: 0.507 µM

Q: What about the TGI [17] of the same compound?
A: > 100 µM

Q: What about the GI50 [18] of the same compound?
A: 0.756 µM

Q: What about the TGI [18] of the same compound?
A: 11.2 µM

Q: What about the GI50 [19] of the same compound?
A: 0.318 µM

Q: What about the TGI [19] of the same compound?
A: 3.38 µM

Q: And the GI50 [20]?
A: 0.456 µM

Q: And the TGI [20]?
A: 5.41 µM

Q: What about the GI50 [21] of the same compound?
A: 0.575 µM

Q: What about the TGI [21] of the same compound?
A: 3.65 µM

Q: And the GI50 [22]?
A: 0.913 µM

Q: And the TGI [22]?
A: > 100 µM

Q: And the GI50 [23]?
A: 1.56 µM

Q: What about the TGI [23] of the same compound?
A: 5.79 µM

Q: What about the GI50 [24] of the same compound?
A: 0.0717 µM

Q: And the TGI [24]?
A: 0.535 µM

Q: What about the GI50 [25] of the same compound?
A: 0.316 µM

Q: And the TGI [25]?
A: 1.86 µM

Q: And the GI50 [26]?
A: 1.14 µM

Q: What about the TGI [26] of the same compound?
A: 4.25 µM

Q: What about the GI50 [27] of the same compound?
A: 0.411 µM

Q: And the TGI [27]?
A: 2.6 µM

Q: What about the GI50 [28] of the same compound?
A: 0.479 µM

Q: What about the TGI [28] of the same compound?
A: 4.7 µM

Q: What about the GI50 [29] of the same compound?
A: 0.419 µM

Q: And the TGI [29]?
A: 3.17 µM

Q: What about the GI50 [30] of the same compound?
A: 0.324 µM

Q: And the TGI [30]?
A: 1.69 µM

Q: And the GI50 [31]?
A: 0.361 µM

Q: And the TGI [31]?
A: 1.75 µM

Q: And the GI50 [32]?
A: 0.608 µM

Q: And the TGI [32]?
A: 7.3 µM

Q: And the GI50 [33]?
A: 0.376 µM

Q: What about the TGI [33] of the same compound?
A: 2.27 µM

Q: What about the GI50 [34] of the same compound?
A: 0.759 µM

Q: What about the TGI [34] of the same compound?
A: 2.96 µM

Q: And the GI50 [35]?
A: 1.38 µM

Q: And the TGI [35]?
A: 6.51 µM

Q: And the GI50 [36]?
A: 0.4 µM

Q: And the TGI [36]?
A: 1.9 µM

Q: And the GI50 [37]?
A: 0.111 µM

Q: And the TGI [37]?
A: 0.878 µM

Q: What about the GI50 [38] of the same compound?
A: 0.0321 µM

Q: And the TGI [38]?
A: 0.457 µM

Q: And the GI50 [39]?
A: 0.381 µM

Q: What about the TGI [39] of the same compound?
A: 2.74 µM

Q: What about the GI50 [40] of the same compound?
A: 0.283 µM

Q: And the TGI [40]?
A: 1.98 µM

Q: What about the GI50 [41] of the same compound?
A: 0.929 µM

Q: And the TGI [41]?
A: 9.45 µM

Q: And the GI50 [42]?
A: 0.397 µM

Q: And the TGI [42]?
A: 1.44 µM

Q: And the GI50 [43]?
A: 0.201 µM

Q: And the TGI [43]?
A: 1.3 µM

Q: What about the GI50 [44] of the same compound?
A: 0.452 µM

Q: And the TGI [44]?
A: 7.95 µM

Q: What about the GI50 [45] of the same compound?
A: 0.597 µM

Q: And the TGI [45]?
A: 5.42 µM

Q: And the GI50 [46]?
A: 0.396 µM

Q: What about the TGI [46] of the same compound?
A: 2.05 µM

Q: What about the GI50 [47] of the same compound?
A: 0.0562 µM

Q: What about the TGI [47] of the same compound?
A: 0.46 µM

Q: And the GI50 [48]?
A: 0.48 µM

Q: What about the TGI [48] of the same compound?
A: 1.84 µM

Q: What about the GI50 [49] of the same compound?
A: 1.63 µM

Q: What about the TGI [49] of the same compound?
A: 15.4 µM

Q: And the GI50 [50]?
A: 0.294 µM

Q: And the TGI [50]?
A: 1.45 µM

Q: What about the GI50 [51] of the same compound?
A: 0.293 µM

Q: And the TGI [51]?
A: 1.89 µM

Q: What about the GI50 [52] of the same compound?
A: 5.8 µM

Q: What about the TGI [52] of the same compound?
A: > 78.4 µM

Q: And the GI50 [53]?
A: 0.277 µM

Q: And the TGI [53]?
A: 2.19 µM

Q: What about the GI50 [54] of the same compound?
A: 0.829 µM

Q: And the TGI [54]?
A: 2.55 µM

Q: And the GI50 [55]?
A: 0.256 µM

Q: What about the TGI [55] of the same compound?
A: 2.07 µM

Q: What about the GI50 [56] of the same compound?
A: 0.359 µM

Q: And the TGI [56]?
A: 2.48 µM

Q: And the GI50 [57]?
A: 0.201 µM

Q: And the TGI [57]?
A: 1.65 µM

Q: And the GI50 [58]?
A: 0.301 µM

Q: And the TGI [58]?
A: > 100 µM
